PubChem BioAssay (NCI)
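Step 1: Grow cells in 96-well plates. Step 2: Expose to compound for 48 hours at 5 concentrations. Step 3: Interpolate endpoints linearly; if unreached, use highest concentration. The concentration for full growth arrest is given as TGI.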

What was measured:
Assay in all cases: DTP human tumour cell line panel, 48 h
786-0 renal = tested on: 786-0 renal
ACHN renal = tested on: ACHN renal
CAKI-1 renal = tested on: CAKI-1 renal
CCRF-CEM leukemia = tested on: CCRF-CEM leukemia
COLO 205 colon = tested on: COLO 205 colon
DU-145 prostate = tested on: DU-145 prostate
EKVX NSCLC = tested on: EKVX NSCLC
HCC-2998 colon = tested on: HCC-2998 colon
HCT-116 colon = tested on: HCT-116 colon
HCT-15 colon = tested on: HCT-15 colon
HL-60(TB) leukemia = tested on: HL-60(TB) leukemia
HOP-62 NSCLC = tested on: HOP-62 NSCLC
HOP-92 NSCLC = tested on: HOP-92 NSCLC
HS 578T breast = tested on: HS 578T breast
HT29 colon = tested on: HT29 colon
IGROV1 ovarian = tested on: IGROV1 ovarian
K-562 leukemia = tested on: K-562 leukemia
KM12 colon = tested on: KM12 colon
LOX IMVI melanoma = tested on: LOX IMVI melanoma
M14 melanoma = tested on: M14 melanoma
MALME-3M melanoma = tested on: MALME-3M melanoma
MCF7 breast = tested on: MCF7 breast
MDA-MB-231 breast = tested on: MDA-MB-231 breast
MDA-MB-435 = tested on: MDA-MB-435
MDA-N = tested on: MDA-N
MOLT-4 leukemia = tested on: MOLT-4 leukemia
NCI-H226 lung = tested on: NCI-H226 lung
NCI-H23 lung = tested on: NCI-H23 lung
NCI-H460 lung = tested on: NCI-H460 lung
NCI-H522 lung = tested on: NCI-H522 lung
NCI/ADR-RES ovarian = tested on: NCI/ADR-RES ovarian
OVCAR-3 ovarian = tested on: OVCAR-3 ovarian
OVCAR-4 ovarian = tested on: OVCAR-4 ovarian
OVCAR-5 ovarian = tested on: OVCAR-5 ovarian
OVCAR-8 ovarian = tested on: OVCAR-8 ovarian
PC-3 prostate = tested on: PC-3 prostate
RPMI-8226 leukemia = tested on: RPMI-8226 leukemia
RXF 393 renal = tested on: RXF 393 renal
SF-268 CNS = tested on: SF-268 CNS
SF-295 CNS = tested on: SF-295 CNS
SF-539 CNS = tested on: SF-539 CNS
SK-MEL-28 melanoma = tested on: SK-MEL-28 melanoma
SK-MEL-5 melanoma = tested on: SK-MEL-5 melanoma
SK-OV-3 ovarian = tested on: SK-OV-3 ovarian
SN12C renal = tested on: SN12C renal
SNB-19 CNS = tested on: SNB-19 CNS
SR leukemia = tested on: SR leukemia
SW-620 colon = tested on: SW-620 colon
T-47D breast = tested on: T-47D breast
TK-10 renal = tested on: TK-10 renal
U251 CNS = tested on: U251 CNS
UACC-257 melanoma = tested on: UACC-257 melanoma
UACC-62 melanoma = tested on: UACC-62 melanoma
UO-31 renal = tested on: UO-31 renal
A498 renal = tested on: A498 renal
A549 NSCLC = tested on: A549 NSCLC
SK-MEL-2 melanoma = tested on: SK-MEL-2 melanoma
SNB-75 CNS = tested on: SNB-75 CNS

CC(C)CC1C(=O)NCCC(NC(=O)C(Cc2ccc(OC(C)(C)C)cc2)NC(=O)OC(C)(C)C)C(=O)NC(Cc2ccccc2)C(=O)NC(Cc2ccccc2)NC1=O (stereo not given)
TGI (786-0 renal): 4.92 µM
TGI (ACHN renal): 23.3 µM
TGI (CAKI-1 renal): > 100 µM
TGI (CCRF-CEM leukemia): 55 µM
TGI (COLO 205 colon): 11.7 µM
TGI (DU-145 prostate): > 100 µM
TGI (EKVX NSCLC): 39.1 µM
TGI (HCC-2998 colon): 35.4 µM
TGI (HCT-116 colon): 17.4 µM
TGI (HCT-15 colon): > 100 µM
TGI (HL-60(TB) leukemia): 26.9 µM
TGI (HOP-62 NSCLC): 37.7 µM
TGI (HOP-92 NSCLC): 32.1 µM
TGI (HS 578T breast): > 100 µM
TGI (HT29 colon): 19.6 µM
TGI (IGROV1 ovarian): 31.7 µM
TGI (K-562 leukemia): 10.3 µM
TGI (KM12 colon): > 100 µM
TGI (LOX IMVI melanoma): 19.3 µM
TGI (M14 melanoma): 32.2 µM
TGI (MALME-3M melanoma): 32 µM
TGI (MCF7 breast): 52.3 µM
TGI (MDA-MB-231 breast): 19.9 µM
TGI (MDA-MB-435): 12.2 µM
TGI (MDA-N): > 100 µM
TGI (MOLT-4 leukemia): 3.48 µM
TGI (NCI-H226 lung): 21.2 µM
TGI (NCI-H23 lung): 33.7 µM
TGI (NCI-H460 lung): 15 µM
TGI (NCI-H522 lung): 35.4 µM
TGI (NCI/ADR-RES ovarian): > 100 µM
TGI (OVCAR-3 ovarian): 19.9 µM
TGI (OVCAR-4 ovarian): 34.6 µM
TGI (OVCAR-5 ovarian): 21.2 µM
TGI (OVCAR-8 ovarian): 20.6 µM
TGI (PC-3 prostate): 46.1 µM
TGI (RPMI-8226 leukemia): 54.4 µM
TGI (RXF 393 renal): 27.2 µM
TGI (SF-268 CNS): 36.1 µM
TGI (SF-295 CNS): 22.8 µM
TGI (SF-539 CNS): 44.9 µM
TGI (SK-MEL-28 melanoma): 42.4 µM
TGI (SK-MEL-5 melanoma): 85.9 µM
TGI (SK-OV-3 ovarian): 45.9 µM
TGI (SN12C renal): 39.8 µM
TGI (SNB-19 CNS): 42.4 µM
TGI (SR leukemia): 72.1 µM
TGI (SW-620 colon): 13.6 µM
TGI (T-47D breast): 22.2 µM
TGI (TK-10 renal): 33.8 µM
TGI (U251 CNS): 27.2 µM
TGI (UACC-257 melanoma): 26.2 µM
TGI (UACC-62 melanoma): 31.1 µM
TGI (UO-31 renal): > 100 µM

CC(C)(C)NC(NC(C)(C)C)=C(/C=C(/Cl)[N+](=O)[O-])[N+](=O)[O-]
TGI (786-0 renal): > 100 µM
TGI (A498 renal): > 100 µM
TGI (A549 NSCLC): 95.3 µM
TGI (ACHN renal): > 100 µM
TGI (CAKI-1 renal): > 100 µM
TGI (CCRF-CEM leukemia): > 100 µM
TGI (COLO 205 colon): 60.3 µM
TGI (DU-145 prostate): > 100 µM
TGI (EKVX NSCLC): > 100 µM
TGI (HCC-2998 colon): > 100 µM
TGI (HCT-116 colon): > 100 µM
TGI (HCT-15 colon): > 100 µM
TGI (HL-60(TB) leukemia): 53.5 µM
TGI (HOP-62 NSCLC): > 100 µM
TGI (HOP-92 NSCLC): > 100 µM
TGI (HS 578T breast): > 100 µM
TGI (HT29 colon): > 100 µM
TGI (IGROV1 ovarian): > 100 µM
TGI (K-562 leukemia): > 100 µM
TGI (KM12 colon): > 100 µM
TGI (LOX IMVI melanoma): > 100 µM
TGI (M14 melanoma): 92.5 µM
TGI (MALME-3M melanoma): 24.4 µM
TGI (MCF7 breast): > 100 µM
TGI (MDA-MB-231 breast): > 100 µM
TGI (MDA-MB-435): 38.3 µM
TGI (MDA-N): 59.5 µM
TGI (MOLT-4 leukemia): > 100 µM
TGI (NCI-H226 lung): > 100 µM
TGI (NCI-H23 lung): > 100 µM
TGI (NCI-H460 lung): > 100 µM
TGI (NCI-H522 lung): > 100 µM
TGI (OVCAR-3 ovarian): 49.7 µM
TGI (OVCAR-4 ovarian): > 100 µM
TGI (OVCAR-5 ovarian): > 100 µM
TGI (OVCAR-8 ovarian): > 100 µM
TGI (PC-3 prostate): > 100 µM
TGI (RPMI-8226 leukemia): > 100 µM
TGI (RXF 393 renal): > 100 µM
TGI (SF-268 CNS): > 100 µM
TGI (SF-295 CNS): > 100 µM
TGI (SF-539 CNS): > 100 µM
TGI (SK-MEL-2 melanoma): > 100 µM
TGI (SK-MEL-28 melanoma): > 100 µM
TGI (SK-MEL-5 melanoma): > 100 µM
TGI (SK-OV-3 ovarian): > 100 µM
TGI (SN12C renal): > 100 µM
TGI (SNB-19 CNS): > 100 µM
TGI (SNB-75 CNS): 87.2 µM
TGI (SR leukemia): > 100 µM
TGI (T-47D breast): > 100 µM
TGI (TK-10 renal): > 100 µM
TGI (U251 CNS): > 100 µM
TGI (UACC-257 melanoma): > 100 µM
TGI (UACC-62 melanoma): > 100 µM
TGI (UO-31 renal): > 100 µM
